From patent publication US10485787B2, “Oral dosage forms of bendamustine and therapeutic use thereof” (ASTELLAS DEUTSCHLAND GMBH, priority 2010, dated 2019)
Structures can show the parent of a compound that is named as a salt.

Tests used:
[1] = Phase 1 crossover study, plasma pharmacokinetics of bendamustine, M3 and M4 (Example 23)
Description: 14 patients who were suffering from multiple myeloma, B-cell type chronic lymphocytic leukemia or advanced indolent non-Hodgkin's lymphoma were enrolled and were treated with bendamustine. […] After signing the informed consent form and following the screening period (days −21 to −2), eligible patients were assigned a patient number which was specific for each study site. Patients were randomized to receive one of the following on day 1 followed by the other on day 8: • a single oral dose of 110.2 mg (2×55.1 mg) bendamustine HCl • a single intravenous dose of 100 mg bendamustine HCl
Bendamustine was provided a) orally as capsules, a LFHC formulation (liquid-filled, hard-shell capsule) and b) intravenously as a solution after reconstituting a powder for the preparation of a solution for injection. The LFHC formulation (per capsule) was prepared from 55.1 mg bendamustine hydrochloride, 1.2 mg methylparaben, 0.12 mg […], 0.12 mg butylated hydroxytoluene, 10.9 mg ethanol and 532.56 mg Cremophor® RH40. The vial with powder for concentrate for solution was the marketed product in Germany (Ribomustine®) which contains per vial 100 mg of bendamustine hydrochloride and mannitol as an excipient. This product was reconstituted with water for injection to a final concentration of 2.5 mg/ml of bendamustine HCl and was further diluted with 0.9% NaCl until about 500 ml before administration to the patient, in accordance with the instructions of the package insert.
Patients were admitted to the study site for 2 periods; days −1 to 2 (period 1) and days 7 to 9 (period 2). A total of 12 patients was to be randomized to receive treatment. Six patients were to receive treatment with a single oral dose of 110.2 mg (2×55.1 mg) bendamustine HCl (day 1) followed by a single intravenous dose of 100 mg bendamustine HCl (day 8) while 6 other patients were to receive treatment in the alternate order. Patients underwent a washout period of at least 7 days between treatments.
After oral and intravenous administration of bendamustine the concentration of bendamustine, as well as that of the active metabolites of bendamustine (M3 and M4), were determined in plasma and urine samples on day 1 and day 8. Patients returned to the study site for an end-of-study visit 7 to 14 days after completion of the second treatment period, or after early discharge/withdrawal. Subsequently the pharmacokinetic parameters of bendamustine and its metabolites were calculated.

[2] = Phase 1 crossover study, urine pharmacokinetics of bendamustine, M3 and M4 (Example 23); assay type: in vivo, patients; details: for percentage of the dose excreted in urine as the metabolite: oral administration; for %Aeinf / %Aelast / CL renal: urine, Bendamustine HCl; for CL renal: human; for percentage of the dose excreted in urine unchanged: oral bendamustine
Description: Bendamustine was provided a) orally as capsules, a LFHC formulation (liquid-filled, hard-shell capsule) and b) intravenously as a solution after reconstituting a powder for the preparation of a solution for injection. The LFHC formulation (per capsule) was prepared from 55.1 mg bendamustine hydrochloride, 1.2 mg methylparaben, 0.12 mg polyparaben, 0.12 mg butylated hydroxytoluene, 10.9 mg ethanol and 532.56 mg Cremophor® RH40. The vial with powder for concentrate for solution was the marketed product in Germany (Ribomustine®) which contains per vial 100 mg of bendamustine hydrochloride and mannitol as an excipient. This product was reconstituted with water for injection to a final concentration of 2.5 mg/ml of bendamustine HCl and was further diluted with 0.9% NaCl until about 500 ml before administration to the patient, in accordance with the instructions of the package insert.
After oral and intravenous administration of bendamustine the concentration of bendamustine, as well as that of the active metabolites of bendamustine (M3 and M4), were determined in plasma and urine samples on day 1 and day 8. […] Subsequently the pharmacokinetic parameters of bendamustine and its metabolites were calculated.

[3] = cited from earlier work
[4] = a range of organic solvents; cited from earlier work
[5] = Phase 1 crossover study, safety and tolerability (Example 23); assay type: in vivo, patients; details: oral and intravenous single doses
Description: Bendamustine was provided a) orally as capsules, a LFHC formulation (liquid-filled, hard-shell capsule) and b) intravenously as a solution after reconstituting a powder for the preparation of a solution for injection. The LFHC formulation (per capsule) was prepared from 55.1 mg bendamustine hydrochloride, 1.2 mg methylparaben, 0.12 mg polyparaben, 0.12 mg butylated hydroxytoluene, 10.9 mg ethanol and 532.56 mg Cremophor® RH40. The vial with powder for concentrate for solution was the marketed product in Germany (Ribomustine®) which contains per vial 100 mg of bendamustine hydrochloride and mannitol as an excipient. […]

[6] = Stability of aqueous solution of bendamustine as a function of pH; assay type: physicochemical

Cn1c(C(O)CCC(=O)O)nc2cc(N(CCCl)CCCl)ccc21 (stereo not drawn) [Example M3, γ-hydroxybendamustine]
Mean AUCinf of bendamustine, times higher than for the metabolite ([1]; oral administration): 10.6 times
percentage of the dose excreted in urine as the metabolite [2]: 0.6%
%Aeinf ([2]; 100 mg intravenously, Mean): 0.459%
%Aelast ([2]; 100 mg intravenously, Mean): 0.457%
%Aeinf ([2]; 100 mg intravenously, Median): 0.354%
%Aelast ([2]; 100 mg intravenously, Median): 0.353%
%Aeinf ([2]; 100 mg intravenously, Min-max): 0.018-1.6%
%Aelast ([2]; 100 mg intravenously, Min-max): 0.018-1.6%
%Aeinf ([2]; 110.2 mg orally, Mean): 0.611%
%Aelast ([2]; 110.2 mg orally, Mean): 0.61%
%Aeinf ([2]; 110.2 mg orally, Median): 0.537%
%Aelast ([2]; 110.2 mg orally, Median): 0.553%
%Aeinf ([2]; 110.2 mg orally, Min-max): 0.13-1.5%
%Aelast ([2]; 110.2 mg orally, Min-max): 0.12-1.6%

Cn1c(CCCC(=O)O)nc2cc(N(CCCl)CCCl)ccc21 [bendamustine hydrochloride]
AUC(0-inf) ([1]; human, plasma, iv, 100 mg): 4790 ng·h/mL
AUC(0-t) ([1]; human, plasma, iv, 100 mg): 4780 ng·h/mL
Cmax ([1]; human, plasma, iv, 100 mg): 5900 ng/mL
Vd ([1]; human, plasma, iv, 100 mg, Vss, plasma, Bendamustine HCl, 100 mg intravenously, Mean): 10.3 L
Vd ([1]; human, plasma, iv, 100 mg, Vz, Bendamustine HCl, 100 mg intravenously, Mean): 14.7 L
half-life ([1]; human, plasma, iv, 100 mg, t1/2, plasma, Bendamustine HCl, 100 mg intravenously, Mean): 30.2 min
Tmax ([1]; human, plasma, iv, 100 mg, Bendamustine HCl, 100 mg intravenously, Mean): 31.4 min
AUC(0-inf) ([1]; human, plasma, po, 110.2 mg): 3900 ng·h/mL
AUC(0-t) ([1]; human, plasma, po, 110.2 mg): 3890 ng·h/mL
Cmax ([1]; human, plasma, po, 110.2 mg): 3170 ng/mL
Vd/F ([1]; human, plasma, po, 110.2 mg): 20.2 L
half-life ([1]; human, plasma, po, 110.2 mg, t1/2, plasma, Bendamustine HCl, 110.2 mg orally, Mean): 27.7 min
Tmax ([1]; human, plasma, po, 110.2 mg, Bendamustine HCl, 110.2 mg orally, Mean): 56.8 min
CL ([1]; plasma, Bendamustine HCl, 100 mg intravenously, Mean): 21.2 L/h
time at which maximal plasma levels were detectable ([3]; oral capsules, 250-350 mg, 7 patients (Preiss 1985)): ≤ 1 h
oral bioavailability, inter-individual range ([3]; similar study, Preiss et al. 1989): 25-121%
solubility in organic solvents [4]: slightly or very slightly soluble
CL renal ([2]; iv, 100 mg, 100 mg intravenously, Mean): 6.42 mL/min
CL renal ([2]; iv, 100 mg, 100 mg intravenously, Median): 3.37 mL/min
CL renal ([2]; iv, 100 mg, 100 mg intravenously, Min-max): 1 to 23.3 mL/min
CL renal ([2]; po, 110.2 mg, 110.2 mg orally, Mean): 13.1 mL/min
CL renal ([2]; po, 110.2 mg, 110.2 mg orally, Median): 13 mL/min
CL renal ([2]; po, 110.2 mg, 110.2 mg orally, Min-max): 3 to 33.3 mL/min
%Aeinf ([2]; 100 mg intravenously, Mean): 2.07%
%Aelast ([2]; 100 mg intravenously, Mean): 2.07%
%Aeinf ([2]; 100 mg intravenously, Median): 1.22%
%Aelast ([2]; 100 mg intravenously, Median): 1.23%
%Aeinf ([2]; 100 mg intravenously, Min-max): 0.27-8.8%
%Aelast ([2]; 100 mg intravenously, Min-max): 0.27-8.8%
%Aeinf ([2]; 110.2 mg orally, Mean): 2.64%
%Aelast ([2]; 110.2 mg orally, Mean): 2.66%
%Aeinf ([2]; 110.2 mg orally, Median): 2.23%
%Aelast ([2]; 110.2 mg orally, Median): 2.23%
%Aeinf ([2]; 110.2 mg orally, Min-max): 0.40-5.8%
%Aelast ([2]; 110.2 mg orally, Min-max): 0.40-5.9%

O=C(O)CCCc1nc2cc(N(CCCl)CCCl)ccc2[nH]1 [Example M4, N-desmethylbendamustine]
Mean AUCinf of bendamustine, times higher than for the metabolite ([1]; oral administration): 88 times
percentage of the dose excreted in urine as the metabolite [2]: 0.1%
%Aeinf ([2]; 100 mg intravenously, Mean): 0.081%
%Aelast ([2]; 100 mg intravenously, Mean): 0.086%
%Aeinf ([2]; 100 mg intravenously, Median): 0.045%
%Aelast ([2]; 100 mg intravenously, Median): 0.043%
%Aeinf ([2]; 100 mg intravenously, Min-max): 0.0039-0.17%
%Aelast ([2]; 100 mg intravenously, Min-max): 0.0028-0.21%
%Aeinf ([2]; 110.2 mg orally, Mean): 0.109%
%Aelast ([2]; 110.2 mg orally, Mean): 0.113%
%Aeinf ([2]; 110.2 mg orally, Median): 0.104%
%Aelast ([2]; 110.2 mg orally, Median): 0.104%
%Aeinf ([2]; 110.2 mg orally, Min-max): 0.034-0.22%
%Aelast ([2]; 110.2 mg orally, Min-max): 0.019-0.21%

Cn1c(CCCC(=O)O)nc2cc(N(CCCl)CCCl)ccc21 [bendamustine, 4-[5-[bis(2-chloroethyl)amino]-1-methylbenzimidazo-2-yl]butanoic acid]
clearance ([1]; human, plasma, iv, 100 mg): 353 mL/min
Vd ([1]; human, plasma, iv, 100 mg, Mean VSS, intravenous administration): 10.3 L
Vd ([1]; human, plasma, iv, 100 mg, Mean VZ, intravenous administration): 14.7 L
half-life ([1]; human, plasma, iv, 100 mg, Mean t1/2, intravenous administration): ~30 min
half-life ([1]; human, plasma, po, 110.2 mg, Mean t1/2, oral intake): ~30 min
Tmax ([1]; human, plasma, po, 110.2 mg, individual values, oral administration): 15 to 108 min
Tmax ([1]; human, plasma, po, 110.2 mg, oral administration): ~57 min
deaths during the study [5]: No deaths
oral bioavailability, range ([3]; oral capsules, 250-350 mg, patients (Preiss 1985)): 25-94%
pH values at which significant hydrolytic decomposition is observed [6]: higher than 5
percentage of the dose excreted in urine unchanged [2]: 2.6%
percentage of the dose excreted in urine unchanged ([2]; listed as Bendamustine): Approximately 2.6%
